# Article PMC5992379 (Frontiers in Molecular Neuroscience, 2018)
# “And” between values parts separate entries of the source, which are not always exact repeats. Equal values may be shown once. Read-outs that look alike come from different tables or passages of the source.
# What was measured:
# BALB/c mice [1] = conditions: for effect of antagonist on the antiallodynia effect of WOBE437, 3 days treatment / effect of antagonist on the antiinflammatory (edema) effect of WOBE437, 3 days treatment / effect of antagonist on the antiallodynia effect of WOBE437, single dose: antagonist i.p. 30 min before WOBE437 10 mg/kg i.p.
# Method: BALB/c mice were anesthetized with xylazine/ketamine (5 and 10 mg/kg, respectively) and subsequently monoarthritis was induced by intra-articular injection of complete Freund’s adjuvant (CFA, 40 μL; Sigma-Aldrich, St. Louis, MO, United states) into the right knee joint. The inflammation was allowed to develop for 14 days prior to pharmacological treatments starting at day 15 for 1 or 3 days, respectively. Mechanical sensitivity (allodynia) and knee diameter (edema) were evaluated 1 h post treatment in the ipsilateral and contralateral knees. Articular sensitivity was evaluated using a digital algometer (Bioseb, United states). […] A cut-off force of 300 g was considered to avoid damage in the tissue. The measurements were done in triplicates and the average was considered for the statistical analysis. To evaluate the degree of inflammation, knee diameter was measured in both extremities using a digital micrometer (Mitutoyo, United states). […] Indomethacin (5 mg/kg; Sigma-Aldrich, United states) was used as a reference drug (positive control). For all the compounds, dimethylsulfoxide (DMSO) was used as vehicle (20 μL, i.p.).
# BALB/c mice [2] = assay: Open field test in monoarthritic mice; format: in vivo; conditions: WOBE437 i.p.
# Method: Potential motor changes were evaluated in an open field box (40 cm × 40 cm × 30 cm, Plexiglas). The mice were individually placed in the center and allowed to move freely for 5 min. The locomotion activity was recorded with the OpenFieldTest^© ([Reynoso-Moreno et al., 2017]) and traveled distance was evaluated automatically. After every experiment, the box was cleaned with 70% ethanol to remove odors.
# [3] = for Clearance: 1 μM WOBE437, preliminary; for MAB (estimated maximal bioavailability): from liver microsome clearance
# Method: Human or mice microsome clearance experiment were carried out as according to a previously describe protocol ([Soethoudt et al., 2017]). […] After 1, 3, 6, 9, 15, 25, 35, and 45 min, 40 μL of the preparation was transferred and quenched with 3:1 (v/v) acetonitrile containing internal standards. Samples were then cooled and centrifuged before analysis by LC-MS/MS. Log peak area ratios (test compound peak area/internal standard peak area) are plotted against incubation time using a linear fit. The calculated slope is used to determine the intrinsic clearance. Data are obtained from single experiments measured with multiple time-points.
# BALB/c male mice [4] = assay: Hot plate test (acute pain) after oral administration; format: in vivo
# Method: The test was performed using a clean 54–56°C hot plate (Thermo Fisher Scientific, United states) with a Plexiglas cylinder. The latency to show the first nociceptive response (paw lick or foot shake) was measured.
# BALB/c male mice [5] = test system: BALB/c male mice; set-up: method as in Chicca et al., 2017; conditions: i.p.; ref Chicca et al., 2017; cited from earlier work
# BALB/c male mice [6] = assay: Tetrad test; format: in vivo; conditions: 50 mg/kg p.o., 1 h after gavage
# Method: The tetrad test was performed in the following order: rectal temperature, catalepsy, locomotion and analgesia. Rectal temperature was measured before (basal) and 1 h post gavage administration by using a thermocouple probe (Physitemp Instruments Inc., United states) and results were reported as the difference (Δ) between both temperatures. The bar test was used to evaluated catalepsy by placing the mouse in an imposed position with both forelimbs resting on a bar of 4 cm high; the end point of catalepsy was considered when both front limbs were removed or remained over 120 s. Locomotor activity was determined by placing the mouse on a rotarod (Erweka, Germany) at 4 rpm, the latency to fall was measured with a cut-off time of 120 s. Each mouse was previously trained to walk over the rotarod for at least 120 s. Catalepsy and locomotion were measured in three trials. Analgesia was evaluated with the hot plate test, each mouse was placed in a 54–56°C hot plate (Thermo Fisher Scientific, United states) with a Plexiglas cylinder, the latency to first nociceptive response (paw lick or foot shake) was measured.
# [7] = for WOBE437 brain levels / WOBE437 plasma levels: 20 min after gavage
# Method: The mice were sacrificed by decapitation after gavage administration. Brain, blood, liver, kidney, and spleen were collected for the LC-MS/MS analyses. All tissues were briefly washed with ice cold PBS and immediately snap-frozen and stored at -80°C. Whole brain samples were dissected between the hemispheres. Blood samples were immediately centrifuged to obtain plasma, which was stored at -80°C.
# Samples extractions and LC-MS/MS measurements we performed as previously described ([Chicca et al., 2017]). Briefly, tissues were weighted and transferred in to extraction tubes containing three steel beads and 0.1 M formic acid. Tissues were homogenized and rapidly transferred to glass tubes containing 1.5 mL of ethyl acetate:hexane (9:1) 0.1% formic acid and internal standards (ISs). Samples were centrifuged and the organic phase was recovered. After evaporation, the extracts were reconstituted in 200 μL of ACN:ddH2O (8:2). 10 μL of the solution were injected in the LC-MS/MS system using the same LC and ionization protocols as described ([Chicca et al., 2017]).
# [8] = test system: Cnr1, Cnr2, Nape-pld, Dagla; assay: Real-time PCR of ECS genes after 3 days treatment in the monoarthritis model; format: in vivo, BALB/c mice; conditions: 10 mg/kg i.p., somatosensory cortex, thalamus, articular tissue
# Method: Total RNA extraction and reverse transcription were carried out with a previously described protocol ([Castro-Torres et al., 2015]). The kit LightCycler® FastStart DNA Master^PLUS SYBR Green I (Roche, United states) was used for the real-time PCR, according to manufacturer protocol, and the reaction was performed in the LightCycler 2.0 equipment (Roche, United states). The relative gene expression was calculated by using the method known as 2ˆ(-ΔΔCt) ([Livak and Schmittgen, 2001]). ΔΔCt was calculated using the following formula:
# (1) ΔΔCt=(CtTE−CtHE)−(CtTC−CtHC)
# Finally 2ˆ(-ΔΔCt) was calculated to obtain the fold change of gene expression. Every sample (n = 6-15, per group and region) was analyzed in duplicated and the mean value was considered for ΔΔCt calculation. Beta-actin was used as the housekeeping gene and mean of vehicle group was used as a calibrator. Sequences and size products of the primers for beta actin (Actb) cannabinoid CB1 receptor (Cnr1), cannabinoid CB2 receptor (Cnr2), diacylglycerol lipase alpha (Dagla), N-acylphosphatidylethanolamine specific phospholipase D (Nape-pld) are shown in Table 1.
# [9] = test system: endocannabinoid levels (AEA, 2-AG); assay: Endocannabinoid, N-acylethanolamine and WOBE437 levels by LC-MS/MS after the hot plate test; format: in vivo, BALB/c male mice
# From the text: The mice were sacrificed by decapitation after gavage administration. […] Whole brain samples were dissected between the hemispheres.
# Samples were centrifuged and the organic phase was recovered.
# [10] = 50 mg/kg p.o., 1 h after gavage
compound,measurement,setting,value
O=C(Nc1ccccc1)c1cc([N+](=O)[O-])ccc1Cl [GW9662],"effect of antagonist on the antiallodynia effect of WOBE437, 3 days treatment",BALB/c mice [1]; 3 days,fully abolished
same,"effect of antagonist on the antiinflammatory (edema) effect of WOBE437, 3 days treatment",BALB/c mice [1]; 3 days,only partially prevented
same,"effect of antagonist on the antiallodynia effect of WOBE437, single dose",BALB/c mice [1]; single dose,did not block
CCCCCCC/C=C/C=C/C(=O)NCCc1ccc(OC)c(OC)c1 [WOBE437],spontaneous motor activity (travel distance),BALB/c mice [2],without significant observable changes
same,reduction in allodynia as compared to the contralateral knee,"BALB/c mice [1]; 10 mg/kg i.p., 3 days treatment",52%
same,reduction of inflammation (edema),"BALB/c mice [1]; 10 mg/kg i.p., 3 days treatment, as compared to the contralateral knee",58%
same,knee diameter,"BALB/c mice [1]; 10 mg/kg i.p., 3 days treatment, ipsilateral knee",5.3 ± 0.4 mm
same,allodynia after single dose,"BALB/c mice [1]; 10 mg/kg i.p., single dose, 1 h post treatment",significantly decrease allodynia
same,allodynia and edema at lower doses,BALB/c mice [1]; 2.5 and 5.0 mg/kg i.p.,did not show any significant changes
same,Clearance,[3]; human liver microsomes,0.657 mL/min/kg
same,MAB (estimated maximal bioavailability),[3]; humans,4%
same,MAB (estimated maximal bioavailability),[3]; mice,17%
same,Clearance,[3]; mouse liver microsomes,0.174 mL/min/kg
same,increase of pain threshold vs vehicle,BALB/c male mice [4]; [10],61.7%
same,pain threshold (latency to first nociceptive response),BALB/c male mice [4]; [10],9.4 ± 1.9 s
same,pain threshold (latency to first nociceptive response),"BALB/c male mice [4]; 100 mg/kg p.o., 1 h after gavage",11.7 ± 2.6 s
same,overall bioavailability compared to the i.p. administration route,"BALB/c male mice [4]; from effective doses in hot plate test, 50 mg/kg p.o. vs 10 mg/kg i.p.",20%
same,estimated effective dose (ED50),"BALB/c male mice [4]; p.o., hot plate",42.5 ± 3.9 mg/kg
same,minimum dose necessary to significantly increase the pain threshold,"BALB/c male mice [4]; p.o., hot plate",50 mg/kg
same,fully effective dose in the hot plate test upon systemic administration,BALB/c male mice [5],10 mg/kg
same,antinociception in tetrad test (hot plate),BALB/c male mice [6],significant antinociception
same,motor coordination (rotarod),BALB/c male mice [6],No statistical differences
same,change in body temperature,BALB/c male mice [6]; not statistically different,-0.8 ± 0.8 °C
same,latency of catalepsy,BALB/c male mice [6]; not statistically different,10.5 ± 10.6 s
same,WOBE437 brain levels,[7]; 10 mg/kg p.o.,24.7 ± 25.3 pmol/g
same,WOBE437 plasma levels,[7]; 10 mg/kg p.o.,47.3 ± 32.5 pmol/mL
same,apparent Cmax in brain,[7]; 50 mg/kg p.o.,~500 pmol/g and 471.7 ± 182.6 pmol/g
same,apparent volume of distribution (Vd) at Cmax,[7]; 50 mg/kg p.o.,80.4 L/kg
same,apparent volume of distribution (Vd) at the steady state,[7]; 50 mg/kg p.o.,609 L/kg
same,factor of reduction of hepatic concentration between 20 and 40 min,[7]; 50 mg/kg p.o.,4
same,highest concentration in kidney,[7]; 50 mg/kg p.o.,2277 ± 916 pmol/g
same,highest concentration in spleen,[7]; 50 mg/kg p.o.,1030 ± 339 pmol/g
same,time after which WOBE437 is cleared from the brain,[7]; 50 mg/kg p.o.,approximately 180 min
same,"tmax in kidney, liver, and spleen",[7]; 50 mg/kg p.o.,≤ 20 min
same,brain levels after p.o. as compared to i.p.,[7]; 50 mg/kg p.o. vs 10 mg/kg i.p.,approximately 10 times lower
same,highest concentration in liver,"[7]; 50 mg/kg p.o., 20 min",4720 ± 3273 pmol/g
same,WOBE437 brain levels,[7]; 50 mg/kg p.o.,534.5 ± 109.9 pmol/g
same,WOBE437 plasma levels,[7]; 50 mg/kg p.o.,1731.5 ± 703.4 pmol/mL
same,hepatic concentration at 40 min,"[7]; 50 mg/kg p.o., 40 min",1080 pmol/g
same,WOBE437 concentration in brain 3 h after administration,"[7]; 50 mg/kg p.o., 3 h",18 pmol/g
same,Brain t1/2,"[7]; 50 mg/kg p.o., Figure 1B",62.7 min
same,Plasma t1/2,"[7]; 50 mg/kg p.o., Figure 1B",19.5 min
same,estimated concentration in brain,"[7]; 50 mg/kg p.o., equivalent of brain Cmax",399.7 ± 154.7 nM
same,Cmax,"[7]; read-out: apparent Cmax in plasma, 50 mg/kg p.o.",~2000 nM and 1930 nM
same,"expression of Cnr1, Cnr2, Dagla and Nape-pld",[8],did not lead to any significant change
same,2-AG levels in plasma,"[9]; 25 mg/kg p.o., 1 h",21.4 ± 4.5 pmol/mL
same,2-AG levels in plasma,"[9]; 50 mg/kg p.o., 1 h",22.6 ± 4.8 pmol/mL
same,2-AG levels in somatosensory cortex,"[9]; 50 mg/kg p.o., 1 h",no changes
same,AEA and 2-AG levels in total brain,"[9]; 50 mg/kg p.o., 1 h",tendency to increase
same,AEA levels in somatosensory cortex,"[9]; 50 mg/kg p.o., 1 h",significant increase
same,concentration of AEA in plasma,"[9]; 50 mg/kg p.o., 1 h",2.2 ± 0.3 pmol/mL
same,2-AG concentration in total brain,"[9]; 50 mg/kg p.o., 1 h, tendency, not significant",13.9 ± 2.6 nmol/g
same,2-AG levels in plasma,"[9]; 100 mg/kg p.o., 1 h",23.8 ± 5.7 pmol/mL
same,increase of 2-AG levels in plasma,"[9]; 25, 50, and 100 mg/kg p.o., vs control",40%
same,"levels of WOBE437 in somatosensory cortex, total brain and plasma","[9]; BALB/c mice, 1 h after p.o.",in the same range as in male C57BL6/J mice
same,"levels of N-acylethanolamines other than AEA (PEA, OEA, LEA)","[9]; somatosensory cortex, total brain or plasma, 1 h after p.o.",No changes
Oc1cc2c(cc1O)CN(C(=S)NCCc1ccc(Cl)cc1)CCC2 [capsazepine],"effect of antagonist on the antiallodynia effect of WOBE437, single dose",BALB/c mice [1]; single dose,completely prevented
same,tolerability of the antagonist together with 3 days WOBE437 treatment,"BALB/c mice [1]; capsazepine with WOBE437 10 mg/kg i.p., 3 days",unexpected hypersensitivity
Cc1c(C(=O)NN2CCCCC2)nn(-c2ccc(Cl)cc2Cl)c1-c1ccc(Cl)cc1 [rimonabant],"effect of antagonist on the antiallodynia effect of WOBE437, 3 days treatment",BALB/c mice [1]; 3 days,fully abolished
same,"effect of antagonist on the antiinflammatory (edema) effect of WOBE437, 3 days treatment",BALB/c mice [1]; 3 days,only partially prevented
same,"effect of antagonist on the antiallodynia effect of WOBE437, single dose",BALB/c mice [1]; single dose,did not block
same,effect of antagonist pre-treatment on the antinociceptive effect of WOBE437,BALB/c male mice [4]; rimonabant 5 mg/kg i.p. 30 min before WOBE437 50 or 100 mg/kg p.o.,completely abolished
SR144528,"effect of antagonist on the antiallodynia effect of WOBE437, 3 days treatment",BALB/c mice [1]; 3 days,fully abolished
same,"effect of antagonist on the antiallodynia effect of WOBE437, single dose",BALB/c mice [1]; single dose,completely prevented
